Test results as given in ChEMBL document CHEMBL2062358, “Hortonones A to C, hydroazulenones from the genus Hortonia” (J Nat Prod, 2012).
Calls of active or inactive are those of the source. The rule behind the calls is not given here.

What was measured:
[1] = test system: MCF7; test: Cytotoxicity against human MCF7 cells at 100 ug/ml after 48 hrs by MTT assay; assay type: functional, cell-based
[2] = test system: MCF7; test: Cytotoxicity against human MCF7 cells at 5 ug/ml after 48 hrs by MTT assay; assay type: functional, cell-based

Row | Compound | Activity [1] | Activity [2]
1 | CC(C)[C@H]1CC[C@@H]2C(=O)C=C(CO)CC[C@@]21C (relative stereo) | inactive | –
2 | CC(C)[C@H]1CC[C@@H]2C=CC(=O)CC[C@]12C (relative stereo) | – | Active
3 | CC1=CC(=O)[C@H]2CC[C@H](C(C)C)[C@@]2(C)CC1 (relative stereo) | inactive | –
